From paper doi:10.1101/2023.08.28.23294750v1 (medrxiv, 2023)

Target: T1, SARS-CoV-2 3CL^pro (Severe acute respiratory syndrome coronavirus 2, UniProt P0DTD1)
Assay: FRET assay, fluorogenic peptide cleavage
Format: biochemical
Details: read-out: % inhibition at 100 μmol/L

Question: `COc1c(O)cc(C(=O)O)cc1O` [M42M2, 4-O-methylgallic acid] was tested. Which inhibition at 100 µM did it give?
Answer: < 50%

Question: How did the inhibition at 100 µM turn out when `O=C1c2cccc(O)c2C(=O)c2c(O)cc(CO)cc21` [compound 11, aloe-emodin] was run?
Answer: < 50%

Question: Which inhibition at 100 µM does the source give for `O=C(O)c1cc(O)c(O)c(O)c1` [compound 42, gallic acid] here?
Answer: < 50%

Question: How did the inhibition at 100 µM turn out when `OCCc1ccc(O)c(O)c1` [hydroxytyrosol] was run?
Answer: < 50%

Question: `COc1cc([C@H]2OC[C@H]3[C@@H]2CO[C@H]3c2ccc(OC)c(OC)c2)ccc1O` [phillygenin] was tested. Which inhibition at 100 µM did it give?
Answer: < 50%

Target: T1, SARS-CoV-2 3CL^pro
Assay: FRET assay, fluorogenic peptide cleavage
Format: biochemical
Details: not given

Question: For `O=C(O)c1cc(O)c2c(c1)C(=O)c1cccc(O)c1C2=O` [compound 3, rhein], which IC50 is on record?
Answer: 4.6 µM

Question: How did the IC50 turn out when `Cc1c(C(=O)O)c(O)cc2c1C(=O)c1c(O)cccc1C2=O` [compound 10, 3,8-dihydroxy-1-methylanthraquinone-2-carboxylic acid] was run?
Answer: 37.2 µM
